Series [1] has as its system peptide amidase. The series is described as follows: Enzymatic cleavage of N-terminal protected dipeptide amides. Conditions: peptide amidase. Type of series: biochemical, orange. From the text: The results in Table 7 were obtained using an eluent: TBA/acetonitrile 60/40 (% volume)
Series [2] concerns peptide amidase. As to the kind of experiment: Enzymatic reaction of peptide amides with a chain length of greater than three amino acids. It counts as biochemical, orange. Conditions: peptide amidase, 6 h, 10000 µM, pH 7. As to the method: Enzymatic reaction of peptide amides with a chain length of greater than
three amino acids. Reaction conditions: 10 mM substrate, 40 μg/ml
50 mM tris/HCL, pH 7.0, temp. 30° C.

For series [3], the system named is peptide amidase. The series is described as follows: Deamidation of tripeptides containing D-amino acids (stereospecificity). Conditions: 12 h. It counts as biochemical, orange. The procedure: Column: RP 18, 0.1 ml/min
Eluent: Solution of TBA (tetrabutylammonium hydrogen sulfate) and […]

Series [4] has as its system peptide amidase purified from orange flavedo. As to the kind of experiment: Cleavage of peptide amides with free N termini and of side chain amides. Type of series: biochemical. The note with it: amides of amino acid side chains (Asn; Gln); amino acid analyzer; 10000 µM. As to the method:
Enzyme activity measured for the deamidation of dipeptide amides with free N termini (e.g. H-Tyr-Arg-NH2) was considerably higher than for peptide amides with an aromatic protective group, such as Z- or Bz-. Activity levels were up to 100 times higher than those measured with protected peptide amides.
Amides of amino acid side chains (Asn; Gln) Analysis
Eluent (HPLC): TBA/acetonitrile 95/5 or 96/4(*)
Reaction conditions: 10 mM substrate; 50 μg/ml peptide amidase; 50 mM
tris/HCl; pH 7.0; temperature 30° C.

Series [5] relates to peptide amidase. As to the kind of experiment: Effect of organic solvents on enzyme stability. Type of series: biochemical, orange. Conditions: 27.8% solvent, 30° C.; acetone, acetonitrile, DMF, ethanol compared. The procedure:
Ten identical mixtures of the following composition:
50 μl of enzyme solution (40 μg of protein/mixture)
were incubated at 30° C. At various times, the reaction was initiated by the addition of substrate (Z-Gly-Tyr-NH2 in 100 μl of buffer/solvent 1:1, corresponding to 10 mM/mixture) and the activity was measured.

Series [6] has as its system peptide amidase. The series is described as follows: Continuous deamidation of H-Tyr-Arg-NH2 in an enzyme membrane reactor (EMR). Type of series: biochemical, orange. The note with it: 20 mM substrate, residence time 30 minute, enzyme 0.15 mg/ml. The procedure:
A continuous process for deamidation of H-Tyr-Arg-NH2 was carried out in an EMR. The conditions for operating the EMR (corresponding to a continuously operated stirred vessel reactor) permitted a more economic utilization of the enzyme because the enzyme was removed by ultrafiltration before the product was purified. The process was carried out under the following conditions: […]

The nature of series [7]: Comparison of the activity of peptide amidase and CPD-Y (pH-stat). It counts as biochemical. Conditions: for Amino-acid amidase activity (percent) / Amino-acid amidase activity (yes/no): strength varies depending on the amide of the amino acid. As to the method:
The enzyme has neither peptidase activity nor amino acid amidase activity, as is evident from the results presented in Table 1 comparing the activities of a purified peptide amidase to carboxypeptidase Y in both its native and modified form.
Comparison of the activity of peptide amidase and CPD-Y;
Conditions for the determination of peptide amidase activity:
30 mM of different substrates, pH 9, 22° C., pH-stat
For the purposes of this disclosure, specific activity is defined as follows: 1 U/mg of enzyme can convert 1 μmol of substrate per minute.

Consider 15 molecules from patent publication US5369016A, “Peptide amidase and the use thereof” (Forschungszentrum Juelich GmbH, priority 1990, dated 1994).

Square brackets hold non-standard residues; d marks the D form. Peptide text beside a SMILES is read from it. * marks the point of attachment. Cbz = O=C(OCc1ccccc1)*

For the molecule `CC(C)C[C@H](NC(=O)CNC(c1ccccc1)(c1ccccc1)c1ccccc1)C(=O)N[C@H](C(N)=O)C(C)C` [Trt--Gly--Leu--Val--NH2], the Yield stood at 95% in series [1] and 100 %/6 h in series [2].

As for `CC(C)C[C@H](NC(=O)[C@@H]1CCCN1C(=O)OCc1ccccc1)C(=O)NCC(N)=O` [Z--Pro--Leu--Gly--NH2] (Cbz-Pro-Leu-Gly-NH2), the Yield in series [1] stood at 90%; in series [2], 100 %/6 h. In series [3], `NCC(=O)N[C@H](Cc1ccccc1)C(=O)N[C@@H](Cc1ccc(O)cc1)C(N)=O` [H--Gly--D-Phe--Tyr--NH2] (H-Gly-[dF]-Tyr-NH2) displayed a Conversion of 100 %/12 hours. With H--Ala--Gln, the Conversion in series [4] worked out at 0%. Consider `C[C@@H](NC(=O)[C@@H]1CCCN1C(=O)[C@@H](N)CCCNC(=N)N)C(N)=O` [H--Arg--Pro--D-Ala--NH2] (H-Arg-Pro-[dA]-NH2), for which, in series [3], the Conversion is listed as 0 %/12 hours. On the same count and under the same terms, the figure for `NCC(=O)N[C@@H](Cc1ccccc1)C(=O)N[C@H](Cc1ccccc1)C(N)=O` [H--Gly--Phe--D-Phe--NH2] (H-Gly-Phe-[dF]-NH2) is 0 %/12 hours. `CN(C)C=O` [DMF, dimethylformamide]: the “decrease in enzyme activity on incubation with solvent (in words)” value in series [5] was “smallest decrease in enzyme activity”.

As to `N=C(N)NCCC[C@H](NC(=O)[C@@H]1CCCN1)C(=O)NCC(N)=O` [H--Pro--Arg--Gly--NH2] (H-Pro-Arg-Gly-NH2), the Yield in series [2] is given as 100 %/6 h. In series [6], `N=C(N)NCCC[C@H](NC(=O)[C@@H](N)Cc1ccc(O)cc1)C(N)=O` [Tyr--Arg--NH2, H-Tyr-Arg-NH2] returned a Mean conversion of 92%. In series [4], H--Ala--Asn returned a Conversion of 0%.

As to `N=C(N)NCCC[C@H](NC(=O)[C@@H]1CCCN1C(=O)OCc1ccccc1)C(=O)NCC(N)=O` [Z--Pro--Arg--Gly--NH2] (Cbz-Pro-Arg-Gly-NH2), the Yield in series [2] is 100 %/6 h. For the molecule H--Leu--Arg--Asn, in series [4], the Conversion was found to be 0%.

For the molecule `CC(C)C[C@H](NC(=O)CNC(=O)CNC(=O)OCc1ccccc1)C(N)=O` [Z--Gly--Gly--Leu--NH2] (Cbz-Gly-Gly-Leu-NH2), the values for the Yield in series [1] and in series [2] were 100% and 100 %/6 h, respectively.

B1: Carboxypeptidase Y [CPD-Y (native)] (protein, UniProt P00729 112-532, looked up)
Carboxypeptidase Y: KIKDPKILGIDPNVTQYTGYLDVEDEDKHFFFWTFESRNDPAKDPVILWLNGGPGCSSLTGLFFELGPSSIGPDLKPIGNPYSWNSNATVIFLDQPVNVGFSYSGSSGVSNTVAAGKDVYNFLELFFDQFPEYVNKGQDFHIAGESYAGHYIPVFASEILSHKDRNFNLTSVLIGNGLTDPLTQYNYYEPMACGEGGEPSVLPSEECSAMEDSLERCLGLIESCYDSQSVWSCVPATIYCNNAQLAPYQRTGRNVYDIRKDCEGGNLCYPTLQDIDDYLNQDYVKEAVGAEVDHYESCNFDINRNFLFAGDWMKPYHTAVTDLLNQDLPILVYAGDKDFICNWLGNKAWTDVLPWKYDEEFASQKVRNWTASITDEVAGEVKSYKHFTYLRVFNGGHMVPFDVPENALSMVNEWIHGGFSL
As for B1, in series [7], the Peptidase activity entry is “yes”, the “Amino-acid amidase activity (percent)” value was 0-92% and the “Amino-acid amidase activity (yes/no)” value is reported as “yes”. Also, the Specific activity in series [7] (30 mM of different substrates, pH 9, 22° C., pH-stat) is given as 0.0082 U/mg protein.

B2: Carboxypeptidase Y [CPD-Y (modified)] (protein, UniProt P00729 112-532, looked up)
Carboxypeptidase Y: KIKDPKILGIDPNVTQYTGYLDVEDEDKHFFFWTFESRNDPAKDPVILWLNGGPGCSSLTGLFFELGPSSIGPDLKPIGNPYSWNSNATVIFLDQPVNVGFSYSGSSGVSNTVAAGKDVYNFLELFFDQFPEYVNKGQDFHIAGESYAGHYIPVFASEILSHKDRNFNLTSVLIGNGLTDPLTQYNYYEPMACGEGGEPSVLPSEECSAMEDSLERCLGLIESCYDSQSVWSCVPATIYCNNAQLAPYQRTGRNVYDIRKDCEGGNLCYPTLQDIDDYLNQDYVKEAVGAEVDHYESCNFDINRNFLFAGDWMKPYHTAVTDLLNQDLPILVYAGDKDFICNWLGNKAWTDVLPWKYDEEFASQKVRNWTASITDEVAGEVKSYKHFTYLRVFNGGHMVPFDVPENALSMVNEWIHGGFSL
modifications: chemically modified
notes: carboxypeptidase Y in a chemically modified form
With B2, in series [7], the “Amino-acid amidase activity (percent)” value is given as 0-77% and the “Amino-acid amidase activity (yes/no)” value is recorded as “yes”.
